The record followed here is ChEMBL document CHEMBL1275243 (2010).

What is called MIC is the smallest concentration in the dilution series that meets the test's criterion for growth inhibition.

≈ marks a conversion by molar mass, not a printed value. Calls of active or inactive are those of the source.

Test [1] concerns Bacillus anthracis. The test is described as follows: Antimicrobial activity against tetracycline-nonsusceptible Bacillus anthracis Sterne S1028 by broth microdilution method. The test is classed as functional, Bacillus anthracis str. Sterne.
Test [2] has as its system Bacillus anthracis. Kind of test: Antimicrobial activity against Bacillus anthracis Sterne 411A2 harboring GyrA Ser85Leu and parC Ser81Phe mutant gene by broth microdilution method. The test is classed as functional, Bacillus anthracis str. Sterne.
Test [3] relates to Bacillus anthracis. The test is described as follows: Antimicrobial activity against Bacillus anthracis Sterne 402 harboring gyrA Ser85Leu mutant gene by broth microdilution method. It is filed as functional, Bacillus anthracis str. Sterne. In general terms: Broth dilution looks for growth in wells or tubes with falling amounts of substance.
Test [4] relates to Bacillus anthracis. Kind of test: Antimicrobial activity against Bacillus anthracis 240 by broth microdilution method. It is filed as functional.
In test [5] the test system is Bacillus anthracis. Kind of test: Antimicrobial activity against Bacillus anthracis A0102 by broth microdilution method. The test is classed as functional.
For test [6], the system named is Bacillus anthracis. Kind of test: Antimicrobial activity against Bacillus anthracis A0488 by broth microdilution method. The test is classed as functional.
For test [7], the system named is Bacillus anthracis. Kind of test: Antimicrobial activity against Bacillus anthracis A0465 by broth microdilution method. The test is classed as functional.
In test [8] the test system is Bacillus anthracis. Kind of test: Antimicrobial activity against Bacillus anthracis A0248 by broth microdilution method. The test is classed as functional.
Test [9] has as its system Bacillus anthracis. The test is described as follows: Antimicrobial activity against Bacillus anthracis A0462 by broth microdilution method. It is filed as functional.
Test [10] relates to Bacillus anthracis. Kind of test: Antimicrobial activity against Bacillus anthracis A03768 by broth microdilution method. The test is classed as functional.
Test [11] concerns Bacillus anthracis. Kind of test: Antimicrobial activity against Bacillus anthracis A0188 by broth microdilution method. It is filed as functional.
The test system of test [12] is Bacillus anthracis. The test is described as follows: Antimicrobial activity against Bacillus anthracis A0264 by broth microdilution method. It is filed as functional.
Test [13] has as its system Bacillus anthracis. The test is described as follows: Antimicrobial activity against Bacillus anthracis A0419 by broth microdilution method. It is filed as functional.
For test [14], the system named is Bacillus anthracis. The test is described as follows: Antimicrobial activity against Bacillus anthracis A0149 by broth microdilution method. It is filed as functional.
Test [15] concerns Bacillus anthracis. The test is described as follows: Antimicrobial activity against Bacillus anthracis A0293 by broth microdilution method. It is filed as functional.
Test [16] concerns Bacillus anthracis. Kind of test: Antimicrobial activity against Bacillus anthracis A0193 by broth microdilution method. It is filed as functional.
The test system of test [17] is Bacillus anthracis. Kind of test: Antimicrobial activity against pXO1-positive and pXO2 negative Bacillus anthracis 34F2 by broth microdilution method. The test is classed as functional.
Test [18] deals with Bacillus anthracis. The test is described as follows: Antimicrobial activity against Bacillus anthracis Sterne 411A2 assessed as growth inhibition at 16 ug/ml after 4 hrs relative to control. The test is classed as functional, organism-based. The conditions noted are these: Bacillus anthracis str. Sterne.

Regarding `C[C@H]1c2cccc(O)c2C(=O)C2=C(O)[C@]3(O)C(=O)C(C(N)=O)=C(O)[C@@H](N(C)C)[C@@H]3[C@@H](O)[C@@H]21.O` [DOXYCYCLINE], the MIC is 1 µg/mL with Bacillus anthracis [1]; “<=0.06 ug ml-1” against Bacillus anthracis [2]; “<=0.06 ug ml-1” in the test with Bacillus anthracis [3]; ≤ 0.06 µg/mL against Bacillus anthracis [4]; ≤ 0.06 µg/mL with Bacillus anthracis [5]; ≤ 0.06 µg/mL in the test on Bacillus anthracis [6]. Moreover, the MIC against Bacillus anthracis [7], in the test on Bacillus anthracis [8], against Bacillus anthracis [9], in the test with Bacillus anthracis [10], against Bacillus anthracis [11] and in the test with Bacillus anthracis [12] was ≤ 0.06 µg/mL in each case. Also, the MIC against Bacillus anthracis [13], in the test on Bacillus anthracis [14], against Bacillus anthracis [15], against Bacillus anthracis [16] and in the test on Bacillus anthracis [17] was ≤ 0.06 µg/mL throughout.

In the case of `O=C(O)c1cn(C2CC2)c2cc(N3CCNCC3)c(F)cc2c1=O` [CIPROFLOXACIN], the MIC is >16 µg/mL against Bacillus anthracis [2]; 1 µg/mL (≈ 3.02 µM) against Bacillus anthracis [3]; 0.03 µg/mL (≈ 0.0905 µM) against Bacillus anthracis [7]; 0.12 µg/mL (≈ 0.362 µM) in the test with Bacillus anthracis [8]; 0.12 µg/mL (≈ 0.362 µM) in the test on Bacillus anthracis [9]; 0.12 µg/mL (≈ 0.362 µM) in the test with Bacillus anthracis [10]. This compound showed an MIC with Bacillus anthracis [16] of 0.015 µg/mL (≈ 0.0453 µM). In the test with Bacillus anthracis [18], the inhibition entry was “inactive”.
